{"source": "patent US20190142835A1", "about": "“INHIBITION OF AUTOPHAGY USING PHOSPHOLIPASE A2 INHIBITORS” (OREGON HEALTH & SCIENCE UNIVERSITY, priority 2017, published 2019)", "key": {"SN12C cells": {"system": "SN12C cells", "assay": "Apoptosis (Caspase 3/7-Glo), SN12C", "format": "cell-based, human", "details": "72 h", "description": "(§1) Apoptosis was determined using Caspase 3/7-Glo assay kit (Promega) following the manufacturer's instructions. Briefly, 2000 cells per well were plated in 96 well plates and cultured for 72 h. […] Caspase 3/7 activity was measured using a luminometer. Luminescence values were normalized by cell numbers."}, "ACHN cells [1]": {"system": "ACHN cells", "assay": "Lipid droplet staining (Bodipy 493/503), ACHN", "format": "cell-based, human", "details": "24 hrs; p<0.001 vs control", "description": "(§2) Cells were grown on coverslips then treated with drug for 24 hours. Cells were fixed in 4% paraformaldehyde for 15 min, rinsed with PBS. Cells were washed with a 1% saponin solution for 15 min at room temperature then washed several times in PBS to remove detergent. Cells were then incubated in Bodipy (ThermoFisher #D3922) at a final concentration of 1 uM for 10 min. Bodipy was removed and slides were rinsed with PBS then air dried and mounted on slides using Dako mounting media with Dapi."}, "ACHN cells [2]": {"system": "ACHN cells", "assay": "Redox homeostasis (p-AMPK, NADPH, GSSG/GSH, ROS)", "format": "cell-based, human", "details": "2 μM CYT387, 10 μM MK2206, 24 hr", "description": "ROS levels were measured with Cellrox Deep Red (Molecular Probes). Cell were plated in a 96 well clear bottom with black sides cell culture plate. […] The complete media+drug was removed after 24 hours and replaced with 5 μM of Cellrox Deep Red in media. Cells were incubated for 30 min at 370 C then washed with PBS. Fluorescence signal was detected using a Bioteck Cytation 5 plate reader. Data was analyzed using Prism software."}, "ACHN cells [3]": {"system": "ACHN cells", "assay": "Apoptosis (Caspase 3/7-Glo), ACHN", "format": "cell-based, human", "details": "ACHN, 72 h", "description": "as §1"}, "ACHN cells [4]": {"system": "ACHN cells", "assay": "Autophagy flux validation (immunofluorescence, immunoblot, mCherry-EGFP-LC3 reporter, MDC, TEM)", "format": "cell-based, human", "from_the_text": "Next, we stably expressed a mChery-EGFP-LC3 reported in ACHN cells. This reporter for autophagic flux takes advantage of the fact that EGFP fluorescence is quenched in the acidic environment of the autolysosome relative to mCherry. […] This method to measure flux has been extensively validated and accurately quantitates autophagic flux induction by multiple stimuli and chemical and genetic inhibition of autophagy. […] LC3-I is normally converted into LC3-II (LC3-I covalently bound to phosphatidylethanolamine) during autophagosome formation but is converted back to LC3-I by protease cleavage during autophagosome maturation.\n(§3) Cells were plated in 6 well dishes and treated the following day with the indicated agents. Treatments were for 24 hours, after which cells were washed with ice cold PBS and lysed with RIPA buffer (Sigma). Phosphatase inhibitor cocktail set II and protease inhibitor cocktail set III (EMD Millipore) were added at the time of lysis. Lysates were centrifuged at 15,000 g×10 min at 4 degrees C. Protein concentrations were calculated based on a BCA assay (Thermo Scientific) generated standard curve. Proteins were resolved using the NuPAGE Novex Mini Gel system on 4% to 12% Bis-Tris Gels (Invitrogen). For western blotting, equal amounts of cell lysates (15-20 μg of protein) were resolved with SDSPAGE, and transferred to membranes. The membrane was probed with primary antibodies, washed, and then incubated with corresponding fluorescent secondary antibodies and washed. The fluorescent signal was captured using LI-COR (Lincoln, Nebr.) Odyssey Imaging System, and fluorescent intensity was quantified using the Odyssey software where indicated. The following antibodies were used for Western blots: p-S6 (S240/244), S6, LC3B, p-Akt(S473), p-Akt(T308), Akt, cleaved caspase3 (Cell Signaling Technologies). p-Stat3 (Y705), Stat3 and β-actin (AC15) (Abcam). Ki67 (Dako) and cleaved caspase3 (Cell Signaling Technologies) were used for immunohistochemistry. […] BX795 and GDC0941 were purchased from Sigma.\nSlides were plated on coverslips and allowed to adhere for 24 hours. After adherence, cells were treated with drug for 24 hours. After treatment, drug was removed and cells were washed once in PBS. Cells were labeled with a […] concentration of autofluorescent marker monodansylcadaverine (MDC) in PBS for 10 min at 37 C. Cells were fixed in 4% formaldehyde for 15 min at room temperature. Cells were washed in PBS 2×5 min, and mounted on slides using Dako mounting media with dapi. Coverslips were sealed with clear nail polish and imaged with 3DHistech MIDI Scanner as described above."}, "[5]": {"system": "human RCC and MPN cell lines", "assay": "Suppression of JAK and STAT3 phosphorylation", "format": "cell-based", "details": "multiple human RCC and MPN cell lines", "description": "as §3"}, "[6]": {"system": "Atg5 deficient cells (Atg5−/−)", "assay": "Autophagy induction in Atg5 deficient MEFs", "format": "cell-based, mouse"}, "[7]": {"system": "Atg5+/+ murine embryonic fibroblasts", "assay": "Lipid droplet number in Atg5+/+ MEFs", "format": "cell-based, mouse", "details": "24 hr", "description": "as §2"}, "[8]": {"system": "PI3K, mTORC1 and mTORC2 signaling", "assay": "Western blotting of PI3K-AKT-mTOR signaling", "format": "cell-based, human", "description": "as §3"}, "[9]": {"system": "patient-derived RCC organotypic cultures", "assay": "Patient tumor ex vivo organotypic culture", "format": "cell-based, human", "details": "24 hours", "description": "Tumor tissue samples were collected at the time of surgical removal for consented patients and transported in IMEM+FBS+PS. Tissue was sliced into thin sections using a surgical knife. Sections were cultured on an organotypic insert (EMD#PICMORG50) for 24 hours in IMEM+10% FBS+1% PS+50 ug/ml holo-transferrin with drug. A section of each tumor was immediately fixed in 10% buffered formalin to confirm tissue viability. After culture, treated tissue sections were fixed in 10% buffered formalin and embedded in paraffin. Paraffin embedded tumors were evaluated for morphology (H&E) and immunofluorescent signaling.\nH&E slides of formalin fixed, paraffin embedded tissue was used to assess morphological integrity of tumor samples. Once integrity was confirmed, immunofluorescent analysis was performed for p-S6 (1:500 CST), p-AKT (1:200 CST) and LC3B (1:250 CST). Four micron sections were cut, de-paraffinized and rehydrated. Antigen retrieval was performed using citrate for 4 min in a pressure cooker. Slides were blocked using 2.5% normal goat serum for 30 min then incubated in primary antibody for 1 hr followed by secondary antibody mouse anti-rabbit alexa 488 (1:1000) for 30 min. Slides were rinsed in PBS, air dried, and coverslipped using Dako mounting media with Dapi."}, "ACHN cells [10]": {"system": "ACHN cells", "assay": "Transcriptomic analysis with gene set enrichment (GSEA)", "format": "cell-based, human"}, "[11]": {"details": "transmission electron microscopy"}}, "data": [{"smiles": "N#CCNC(=O)c1ccc(-c2ccnc(Nc3ccc(N4CCOCC4)cc3)n2)cc1", "note": "[CYT387]", "values": [{"measurement": "apoptosis (cleaved-caspase 3/7)", "setting": "SN12C cells", "result": "little or no effect on apoptosis"}, {"measurement": "number of lipid droplets", "setting": "ACHN cells [1]", "result": "increase in the number of lipid droplets"}, {"measurement": "size of lipid droplets", "setting": "ACHN cells [1]", "result": "increase in the size of lipid droplets"}, {"measurement": "NADPH levels", "setting": "ACHN cells [2]", "result": "increases NADPH levels"}, {"measurement": "ROS", "setting": "ACHN cells [2]", "result": "mitigates ROS"}, {"measurement": "p-AMPK", "setting": "ACHN cells [2]", "result": "activates p-AMPK"}, {"measurement": "apoptosis (cleaved-caspase 3/7)", "setting": "ACHN cells [3]", "result": "little or no effect on apoptosis"}, {"measurement": "p62 protein expression and phosphorylated-S6 levels by immunofluorescence staining", "setting": "ACHN cells [4]; cells on coverslips", "result": "decreased p62 protein expression and phosphorylated-S6 levels"}, {"measurement": "phosphorylation of Y705-STAT3", "setting": "ACHN cells [4]; immunoblot", "result": "decrease in phosphorylation of Y705-STAT3"}, {"measurement": "LC3-II levels", "setting": "ACHN cells [4]; immunoblot, more pronounced with E64D/pepstatin", "result": "increased LC3-II levels"}, {"measurement": "MDC autoflorescence", "setting": "ACHN cells [4]; monodansylcadaverine staining", "result": "increased MDC autoflorescence"}, {"measurement": "time to reduction in LC3B lipidation after removal of drug", "setting": "ACHN cells [4]; reversal of autophagy", "result": "≤ 24", "unit": "h"}, {"measurement": "mChery-EGFP-LC3 reporter of autophagic flux", "setting": "ACHN cells [4]; stably expressed reporter", "result": "decreased expression of green-yellow cells and increased expression of red cells"}, {"measurement": "number of double-membraned autophagosomes", "setting": "ACHN cells [4]; [11]", "result": "increased the number of double-membraned autophagosomes"}, {"measurement": "number of mitochondria and lipid droplets", "setting": "ACHN cells [4]; [11]", "result": "increased number of mitochondria and lipid droplets"}, {"measurement": "phosphorylation of JAK and STAT3", "setting": "[5]", "result": "effective in suppressing the phosphorylation of JAK and STAT3"}, {"measurement": "autophagy induction", "setting": "[6]", "result": "did not induce autophagy"}, {"measurement": "LD numbers", "setting": "[7]", "result": "significantly increase LD numbers"}, {"measurement": "phosphorylation of ERK 1/2", "setting": "[8]", "result": "no effect on the phosphorylation of ERK 1/2"}, {"measurement": "AKT T308 phosphorylation (readout for PI3K signaling)", "setting": "[8]; time-dependent", "result": "increase in AKT T308"}, {"measurement": "LCB expression and phosphorylated S6 levels", "setting": "[9]", "result": "significantly induced LCB expression while simultaneously reducing phosphorylated S6 levels"}, {"measurement": "expression of genes involved in glycolysis such as PFKB3 and HK2", "setting": "ACHN cells [10]", "result": "downregulated genes involved in glycolysis"}]}]}
